Experimental data as given in patent US12522597B2, “Methods and compositions for modulating splicing” (Skyhawk Therapeutics, Inc., priority 2019, dated 2026).
Like-named read-outs stand apart in the source and are kept apart here.

Key:
[1] = system: Huntingtin (HTT) transcripts; assay: Quantitative splicing assay (HTT), qPCR; format: cell-based; details: Homo sapiens, GM04724 (CAG 70/20) Huntington's disease patient lymphoblasts, 24 h
Method in brief: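 Read-out is TaqMan qPCR on cDNA, quantifying inclusion of a cryptic exon within HTT intron 49. Cells were Huntington's patient lymphoblasts GM04724 (CAG 70/20), treated for 24 h at 0.15 nM–2.5 uM compound in 0.1% DMSO.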

[2] = system: MDR1-MDCK cell monolayers; assay: MDCK-MDR1 permeability assay (BBB penetration potential); format: in vitro ADME; details: dog, MDCK-MDR1, 120 min, 5 μM, pH 7.4
Protocol: (§1) Each determination is performed in duplicate. […] Analytical conditions are outlined below.

MDR1 = assay: as above; format: in vitro ADME; details: dog; for efflux ratio at 120 min, 5 μM: MDCK-MDR1, pH 7.4, MDCK-MDR1: Efflux; for Papp A→B at 120 min, 5 μM: MDCK-MDR1, pH 7.4, MDCK-MDR1: Papp A-B; for Papp B→A at 120 min, 5 μM: MDCK-MDR1, pH 7.4, MDCK-MDR1: Papp B-A
Protocol: as §1

mHTT protein = mHTT protein assay (2B7-MW1, Mesoscale Discovery); format: cell-based, human; details: GM04724 (CAG 70/20) Huntington's disease patient lymphoblast cells, 48 hours, 2B7-MW1 MSD; read-out: HTT Potency - Protein EC50 mHTT (average)
Method in brief: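 mHTT levels were read with the 2B7-MW1 antibody pair (N17 and polyQ epitopes) on MSD after 48 h dosing, 10 μM–0.6 nM. Cells were GM04724 HD lymphoblasts (CAG 70/20). A replica plate was read by CTG for cell viability.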

[3] = qPCR HTTex49_50, read-out: HTT Potency - Splicing: E49-50 EC50 (average)
[4] = qPCR cryptic exon 49b inclusion, read-out: HTT Potency - Splicing: E49b EC50 (average)

Compound | EC50 [1, 3] | EC50 [1, 4] | MDCK-MDR1: % Recov A-B [2] | MDCK-MDR1: % Recov B-A [2] | efflux ratio at 120 min, 5 μM (MDR1) | Papp A→B at 120 min, 5 μM (MDR1) | Papp B→A at 120 min, 5 μM (MDR1) | EC50 (mHTT protein)
Cn1cc(-c2ccc(-c3ccc(O[C@H]4C[C@H]5CCC[C@H](N5)[C@@H]4F)nn3)c(O)c2)cn1 (single isomer, unassigned) [121-ENT1] | 501 to 10000 nM | 501 to 10000 nM | 66% | 73% | 5 | 11 ×10⁻⁶ cm/s | 50.3 ×10⁻⁶ cm/s | 501 to 10000 nM
Cc1ncc(-c2ccc(-c3ccc(O[C@@H]4C[C@H]5CCC[C@H](N5)[C@@H]4F)nn3)c(O)c2)o1 (single isomer, unassigned) [93-ENT1] | 16 to 50 nM | 16 to 50 nM | 75% | 78% | 4 | 8.72 ×10⁻⁶ cm/s | 38.7 ×10⁻⁶ cm/s | 16 to 50 nM
Oc1cc(-c2cn[nH]c2)ccc1-c1ccc(O[C@@H]2C[C@H]3CCC[C@H](N3)[C@@H]2F)nn1 (single isomer, unassigned) [40-ENT2] | 0.01 to 15 nM | 0.01 to 15 nM | 80% | 83% | 17 | 2.47 ×10⁻⁶ cm/s | 41.6 ×10⁻⁶ cm/s | 0.01 to 15 nM
Cn1cc(-c2cc(O)c(-c3ccc(O[C@H]4C[C@@H]5CCC[C@@H](N5)[C@H]4F)nn3)cc2F)cn1 (single isomer, unassigned) [82-ENT2] | 0.01 to 15 nM | 0.01 to 15 nM | 35% | 72% | 4 | 3.26 ×10⁻⁶ cm/s | 12.8 ×10⁻⁶ cm/s | 0.01 to 15 nM
Cn1ccc2cc(-c3ccc(O[C@@H]4C[C@@]5(C)CCC[C@](C)(N5)[C@@H]4F)nn3)c(O)cc2c1=O (single isomer, unassigned) [156-ENT1] | 16 to 50 nM | 16 to 50 nM | 86% | 90% | 11 | 4.79 ×10⁻⁶ cm/s | 52.6 ×10⁻⁶ cm/s | 0.01 to 15 nM
Cn1ccc(-c2cc(O)c(-c3ccc(O[C@@H]4C[C@H]5CCC[C@H](N5)[C@@H]4F)nn3)cc2F)cc1=O (single isomer, unassigned) [58-ENT1] | 16 to 50 nM | 16 to 50 nM | 97% | 103% | 49 | 0.92 ×10⁻⁶ cm/s | 45.1 ×10⁻⁶ cm/s | 0.01 to 15 nM
Cn1cnc2cc(O)c(-c3ccc(O[C@@H]4C[C@@]5(C)CCC[C@](C)(N5)[C@@H]4F)nn3)cc2c1=O (single isomer, unassigned) [133-ENT2] | 51 to 100 nM | 51 to 100 nM | 92% | 90% | 12 | 5.25 ×10⁻⁶ cm/s | 60.9 ×10⁻⁶ cm/s | 0.01 to 15 nM
Cn1ccc(-c2ccc(-c3ccc(O[C@H]4C[C@]5(C)CCC[C@@](C)(N5)[C@H]4F)nn3)c(O)c2)cc1=O (single isomer, unassigned) [149-ENT1] | 51 to 100 nM | 16 to 50 nM | 76% | 79% | 22 | 2.23 ×10⁻⁶ cm/s | 48.6 ×10⁻⁶ cm/s | 16 to 50 nM
Cn1cc(-c2cc(O)c(-c3ccc(O[C@@H]4C[C@H]5CCC[C@H](N5)[C@@H]4F)nn3)cc2F)cn1 (single isomer, unassigned) [82-ENT1] | 0.01 to 15 nM | 0.01 to 15 nM | 45% | 72% | 4 | 4.12 ×10⁻⁶ cm/s | 16.8 ×10⁻⁶ cm/s | 0.01 to 15 nM
Cn1cc(-c2cc(O)c(-c3ccc(O[C@@H]4C[C@H]5CC[C@H](N5)[C@@H]4F)nn3)cc2F)cn1 (single isomer, unassigned) [61-ENT1] | 16 to 50 nM | 0.01 to 15 nM | 43% | 79% | 3 | 4.83 ×10⁻⁶ cm/s | 13.8 ×10⁻⁶ cm/s | 16 to 50 nM
Cn1ccc2cc(-c3ccc(O[C@H]4C[C@@H]5CC[C@@H](N5)[C@H]4F)nn3)c(O)cc2c1=O (single isomer, unassigned) [126-ENT1] | 101 to 500 nM | 51 to 100 nM | 100% | 95% | 14 | 3.5 ×10⁻⁶ cm/s | 48.3 ×10⁻⁶ cm/s | 16 to 50 nM
Cn1cc(-c2ccc(-c3ccc(O[C@H]4C[C@@H]5CC[C@@H](N5)[C@H]4F)nn3)c(O)c2)cn1 (single isomer, unassigned) [60-ENT2] | 16 to 50 nM | 16 to 50 nM | 67% | 78% | 4 | 8.12 ×10⁻⁶ cm/s | 31.3 ×10⁻⁶ cm/s | 51 to 100 nM
COc1cc(-c2ccc(-c3ccc(O[C@H]4C[C@@H]5CCC[C@@H](N5)[C@H]4F)nn3)c(O)c2)cnn1 (single isomer, unassigned) [76-ENT2] | 0.01 to 15 nM | 0.01 to 15 nM | 82% | 85% | 10 | 4.19 ×10⁻⁶ cm/s | 39.9 ×10⁻⁶ cm/s | 0.01 to 15 nM
Cn1cc(-c2ccc(-c3ccc(O[C@H]4C[C@@H]5CCC[C@@H](N5)[C@H]4F)nn3)c(O)c2)oc1=O (single isomer, unassigned) [97-ENT2] | 16 to 50 nM | 16 to 50 nM | 74% | 82% | 10 | 3.11 ×10⁻⁶ cm/s | 32 ×10⁻⁶ cm/s | 0.01 to 15 nM
Cn1cc(-c2ccc(-c3ccc(O[C@@H]4C[C@H]5CCC[C@H](N5)[C@@H]4F)nn3)c(O)c2)cn1 (single isomer, unassigned) [1-ENT1] | 16 to 50 nM | 16 to 50 nM | 85% | 84% | 6 | 6.16 ×10⁻⁶ cm/s | 37.9 ×10⁻⁶ cm/s | 0.01 to 15 nM
Cn1ccc(-c2ccc(-c3ccc(O[C@@H]4C[C@H]5CCC[C@H](N5)[C@@H]4F)nn3)c(O)c2)n1 (single isomer, unassigned) [68-ENT1] | 16 to 50 nM | 16 to 50 nM | 87% | 79% | 6 | 8.61 ×10⁻⁶ cm/s | 51.9 ×10⁻⁶ cm/s | 16 to 50 nM
C[C@@]12CC[C@@](C)(N1)[C@@H](F)[C@@H](Oc1ccc(-c3ccc(-c4cn[nH]c4)cc3O)nn1)C2 (single isomer, unassigned) [2-ENT2] | 0.01 to 15 nM | 0.01 to 15 nM | 90% | 87% | 3 | 14.5 ×10⁻⁶ cm/s | 46.4 ×10⁻⁶ cm/s | 0.01 to 15 nM
